Where two headings read alike, the source gives them in different places.
Experiments:
ERK1/2 kinase = target: T1, ERK1/2 kinase; assay: ERK1/2 kinase (Carna) inhibitory activity, Caliper mobility shift; format: biochemical; conditions: for IC50: read-out: ERK½ IC50
T1 construct: fused on or other part: Carna's ERK products carry a GST tag by vendor knowledge
Procedure, shortened: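 Compounds tested from 10 μM top concentration, 3-fold dilutions to 10 points, in duplicate, in 1× kinase buffer; Caliper mobility-shift readout.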

Colo-205 cells = assay: Colo-205 tumor cell proliferation, CCK-8, 72 hours; format: cell-based; conditions: for IC50: Homo sapiens, COLO 205, 72 hours, CCK-8, numeric values, read-out: Colo-205 IC50; for cell proliferation inhibitory activity (in words): Colo-205
[1] = system: Colo-205 transplanted tumor; assay: Growth inhibition of nude mice Colo-205 transplanted tumor; format: in vivo; conditions: 50 mg/kg, qdx21, po
Procedure: The tumor tissue in the vigorous growth phase was cut into about 1.5 mm^3 and inoculated subcutaneously in the right axilla of nude mice under sterile conditions. The diameter of subcutaneous transplanted tumors in nude mice was measured with a vernier caliper, and the mice were randomly divided into groups when the average tumor volume reached about 130 mm^3. The embodiment compounds (injection water containing 1% Tween 80 were configured to a desired concentration for later use) were orally administered daily at a given dose for three consecutive weeks, and the solvent control group was administered with the same amount of solvent. During the whole test, the diameter of transplanted tumor was measured twice a week, and the mice were weighed at the same time. The calculation formula of tumor volume (TV) is expressed as TV=1/2×a×b^2, wherein a and b represent length and width, respectively. The relative tumor volume (RTV) was calculated according to the measurement results, and the calculation formula is RTV=Vt/V0, wherein V0 is the tumor volume measured when administered in separate cages (i.e., d0), and Vt is the tumor volume at the time of each measurement.

p-ERK in MiaPaca-2 = assay: p-ERK feedback upregulation in MiaPaca-2 tumor cells; format: cell-based; conditions: acting on MiaPaca-2
[2] = Liver microsomal metabolic stability, rat; format: in vitro ADME; conditions: liver microsomes, 0.5 mg/mL microsomes, 1 μM compound, NADPH, read-out: Liver microsomal stability T1/2
Procedure: (§1) The reaction was stopped with tinidazole-containing acetonitrile at 0 min, 5 min, 10 min and 30 min, respectively. After vortexing for 10 min and centrifuging at 15,000 rmp for 10 min, 50 μL of the supernatant was injected into a 96-well plate. The metabolic stability of the compound was calculated by determining the relative reduction of the drug, calculated as half-life T1/2.

[3] = Liver microsomal metabolic stability, dog; format: in vitro ADME; conditions: liver microsomes, 0.5 mg/mL microsomes, 1 μM compound, NADPH, read-out: Liver microsomal stability T1/2
Procedure: as §1

[4] = Liver microsomal metabolic stability, human; format: in vitro ADME; conditions: liver microsomes, 0.5 mg/mL microsomes, 1 μM compound, NADPH, read-out: Liver microsomal stability T1/2
Procedure: as §1

[5] = Liver microsomal metabolic stability, mouse; format: in vitro ADME; conditions: liver microsomes, 0.5 mg/mL microsomes, 1 μM compound, NADPH, read-out: Liver microsomal stability T1/2
Procedure: as §1

[6] = Liver microsomal stability, comparisons in words across species; format: in vitro ADME; conditions: mouse, rat and human; compared with comparative compound 5
Procedure: as §1

CYP1A2 = target: T2, CYP1A2 (Homo sapiens, UniProt P05177); assay: Direct inhibition test (DI test) in human liver microsomes, CYP1A2
T2 sequence (P05177 1-516): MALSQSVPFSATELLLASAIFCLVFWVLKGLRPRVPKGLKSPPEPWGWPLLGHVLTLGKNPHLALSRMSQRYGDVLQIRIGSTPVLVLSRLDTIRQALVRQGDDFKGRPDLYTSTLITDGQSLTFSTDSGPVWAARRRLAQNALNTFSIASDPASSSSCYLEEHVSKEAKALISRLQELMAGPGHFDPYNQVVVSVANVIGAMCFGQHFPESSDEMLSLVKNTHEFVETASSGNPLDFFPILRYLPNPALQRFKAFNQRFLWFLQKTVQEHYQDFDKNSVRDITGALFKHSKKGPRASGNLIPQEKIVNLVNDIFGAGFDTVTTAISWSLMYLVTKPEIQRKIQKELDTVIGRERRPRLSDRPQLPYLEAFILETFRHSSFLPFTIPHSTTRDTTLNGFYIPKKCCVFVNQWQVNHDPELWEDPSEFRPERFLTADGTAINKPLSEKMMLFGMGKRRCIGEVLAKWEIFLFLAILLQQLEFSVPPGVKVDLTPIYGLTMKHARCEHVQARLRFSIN
Procedure: (§2) (2) Direct inhibition test (DI test): A system containing 100 μL of human liver microsomes (final concentration of 0.2 mg/mL) was subjected to a direct inhibition incubation, and the system contained NADPH (final concentration of 1 mM), 10 μM compound, positive inhibitor cocktail (10 μM ketoconazole, 10 μM quinidine, 100 μM sulfaphenazole, 10 μM α-naphthoflavone, 1,000 μM tranylcypromine), negative control (BPS of 0.1% DMSO), and mixed probe substrates (10 μM midazolam, 100 μM testosterone, 10 μM dextromethorphan, […], 100 μM phenacetin, 100 μM mephenytoin). After 20 minutes of incubation, the reaction was stopped. The relative activity of the enzyme was calculated by measuring the relative production of metabolites.

CYP2C8 = CYP2C8 (Homo sapiens, UniProt P11712); assay: Direct inhibition test (DI test) in human liver microsomes, CYP2C8; format: in vitro ADME
CYP2C19 = target: T3, CYP2C19 (Homo sapiens, UniProt P33261); assay: Direct inhibition test (DI test) in human liver microsomes, CYP2C19; format: in vitro ADME
T3 construct: A system containing 100 μL of human liver microsomes; from tissue; host or cells: human liver microsomes
Procedure: as §2

CYP3A4 = target: T4, CYP3A4 (Homo sapiens, UniProt P08684); assay: Direct inhibition test (DI test) in human liver microsomes, CYP3A4; format: in vitro ADME
T4 construct: A system containing 100 μL of human liver microsomes; from tissue; host or cells: human liver microsomes
Procedure: as §2

CYP2D6 = target: T5, CYP2D6 (Homo sapiens, UniProt P10635); assay: Direct inhibition test (DI test) in human liver microsomes, CYP2D6; format: in vitro ADME
T5 construct: A system containing 100 μL of human liver microsomes; from tissue; host or cells: human liver microsomes
Procedure: as §2

[7] = In-vivo pharmacokinetic parameters in mice; set-up: species or system Balb-c mice
Procedure, shortened: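 Male SD rats or Balb-c mice were dosed intravenously at 1 mg/kg or orally at 5 mg/kg. Jugular-vein plasma was sampled up to 24 h and analysed by LC-MS/MS. Non-compartmental analysis gave AUC, MRT, Cmax, Tmax, T1/2, Vd and oral bioavailability (F).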

[8] = male, Balb-c, mouse, plasma, IV, 1 mg/kg
[9] = male, Balb-c, mouse, plasma, PO, 5 mg/kg

T3 sequence (P33261 whole entry): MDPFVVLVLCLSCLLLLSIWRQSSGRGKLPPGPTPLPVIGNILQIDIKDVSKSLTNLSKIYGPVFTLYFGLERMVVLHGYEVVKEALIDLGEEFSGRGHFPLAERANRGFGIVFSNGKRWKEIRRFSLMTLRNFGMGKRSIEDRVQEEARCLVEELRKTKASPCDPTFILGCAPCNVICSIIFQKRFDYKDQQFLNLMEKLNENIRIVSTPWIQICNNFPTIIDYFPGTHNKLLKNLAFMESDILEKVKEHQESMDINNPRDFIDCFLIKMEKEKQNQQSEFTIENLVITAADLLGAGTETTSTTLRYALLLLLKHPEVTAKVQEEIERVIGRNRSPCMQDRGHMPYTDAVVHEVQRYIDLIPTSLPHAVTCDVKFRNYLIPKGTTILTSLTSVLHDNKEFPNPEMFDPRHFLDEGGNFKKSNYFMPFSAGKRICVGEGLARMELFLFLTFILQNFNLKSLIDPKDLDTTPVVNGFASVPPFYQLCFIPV
T4 sequence (P08684 whole entry): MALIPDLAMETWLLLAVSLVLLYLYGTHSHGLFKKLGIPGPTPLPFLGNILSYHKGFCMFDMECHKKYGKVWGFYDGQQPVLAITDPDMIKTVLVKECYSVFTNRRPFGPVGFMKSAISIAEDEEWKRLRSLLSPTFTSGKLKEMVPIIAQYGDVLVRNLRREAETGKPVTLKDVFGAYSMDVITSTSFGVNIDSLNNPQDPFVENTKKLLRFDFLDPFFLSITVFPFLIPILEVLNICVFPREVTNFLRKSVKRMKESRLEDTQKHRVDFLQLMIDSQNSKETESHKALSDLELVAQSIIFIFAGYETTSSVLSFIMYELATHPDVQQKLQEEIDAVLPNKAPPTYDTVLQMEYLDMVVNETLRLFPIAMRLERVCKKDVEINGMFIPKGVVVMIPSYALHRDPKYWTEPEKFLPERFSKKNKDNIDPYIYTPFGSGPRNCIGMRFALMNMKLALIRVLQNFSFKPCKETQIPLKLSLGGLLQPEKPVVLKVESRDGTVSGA
Sequence of CYP2C8 (P11712 whole entry): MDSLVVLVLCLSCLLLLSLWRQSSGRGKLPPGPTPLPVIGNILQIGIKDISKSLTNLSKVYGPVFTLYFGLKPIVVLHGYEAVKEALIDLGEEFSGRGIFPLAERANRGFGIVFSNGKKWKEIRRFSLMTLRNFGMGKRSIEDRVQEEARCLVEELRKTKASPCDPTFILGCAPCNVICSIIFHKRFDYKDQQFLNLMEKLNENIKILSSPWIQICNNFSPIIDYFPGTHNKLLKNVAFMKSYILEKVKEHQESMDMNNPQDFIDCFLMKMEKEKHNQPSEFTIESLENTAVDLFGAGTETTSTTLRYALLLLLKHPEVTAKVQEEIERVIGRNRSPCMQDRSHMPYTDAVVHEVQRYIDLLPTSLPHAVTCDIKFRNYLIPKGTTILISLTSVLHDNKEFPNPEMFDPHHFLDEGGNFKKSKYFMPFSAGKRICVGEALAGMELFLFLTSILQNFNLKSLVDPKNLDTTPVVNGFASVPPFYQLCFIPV
T5 sequence (P10635 whole entry): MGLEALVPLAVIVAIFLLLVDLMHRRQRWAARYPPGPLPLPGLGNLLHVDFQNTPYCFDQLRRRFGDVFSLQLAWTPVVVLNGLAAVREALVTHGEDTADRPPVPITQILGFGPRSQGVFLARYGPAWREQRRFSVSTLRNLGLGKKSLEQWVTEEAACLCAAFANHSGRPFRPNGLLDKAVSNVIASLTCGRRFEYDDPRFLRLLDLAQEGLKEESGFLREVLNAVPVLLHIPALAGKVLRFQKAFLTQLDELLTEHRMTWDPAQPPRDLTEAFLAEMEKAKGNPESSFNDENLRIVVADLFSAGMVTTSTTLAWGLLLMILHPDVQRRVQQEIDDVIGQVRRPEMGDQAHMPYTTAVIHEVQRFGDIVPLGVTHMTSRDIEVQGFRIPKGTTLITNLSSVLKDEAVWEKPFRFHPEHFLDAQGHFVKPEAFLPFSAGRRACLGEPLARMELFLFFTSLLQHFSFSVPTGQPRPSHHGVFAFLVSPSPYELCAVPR

| SMILES | IC50 (Colo-205 cells) [µM] | enzyme inhibitory activity (in words) (ERK1/2 kinase) | IC50 (ERK1/2 kinase; numeric values) [µM] | cell proliferation inhibitory activity (in words) (Colo-205 cells) | IC50 (CYP1A2) [µM] | IC50 at 20 min (CYP2C8) [µM] | IC50 (CYP2C19) [µM] | IC50 (CYP3A4) [µM] | IC50 (CYP2D6) [µM] | also measured |
| --- | --- | --- | --- | --- | --- | --- | --- | --- | --- | --- |
| CC(C)Nc1cc(-c2c[nH]c(C(=O)N[C@H](CO)c3cccc(Cl)c3)c2)c(Cl)cn1 [BVD523, reference compound] | 0.28 |  |  |  |  |  |  |  |  | IC50 (ERK1/2 kinase; class symbols): < 0.01 µM; T/C [1]: 48.5%; Initial weight (D0) ([1]; D0): 19.8 g; Terminal weight (D21) ([1]; D21): 19.0 g; Initial tumor volume ([1]; initial): 97 ± 14 mm^3; Terminal tumor volume ([1]; terminal): 471 ± 198 mm^3; p-ERK upregulation (in words) (p-ERK in MiaPaca-2): will cause p-ERK feedback upregulation |
| COc1cc(F)cc([C@@H](CO)NC(=O)[C@@H](C)N2Cc3ccc(-c4nc(NC5CCOCC5)ncc4Cl)nc3C2=O)c1 [Embodiment 18] | 0.0333 | extremely strong enzyme inhibitory activity | 0.0008 | strong cell proliferation inhibitory activity | > 10 | > 10 | > 10 | > 10 | > 10 | half-life at 1 μM [2]: 16 min; half-life at 1 μM [3]: 32 min; half-life at 1 μM [4]: 12 min; half-life at 1 μM [5]: 32 min; stability in liver microsomes (in words) [6]: significantly improved; F ([7]; PO 5 mg/kg vs IV 1 mg/kg): 25%; AUC(0-inf) [7, 8]: 0.202 µM·h; AUC(0-t) [7, 8]: 0.198 µM·h; MRT inf [7, 8]: 30 min; clearance [7, 8]: 144 mL/min/kg; half-life [7, 8]: 72 min; Vd ([7]; male, Balb-c, mouse, plasma, IV, 1 mg/kg, read-out: Vss): 3.9 L/kg; AUC(0-inf) [7, 9]: 0.257 µM·h; AUC(0-t) [7, 9]: 0.253 µM·h; Cmax [7, 9]: 289 nM; Tmax [7, 9]: 24 min; half-life [7, 9]: 42 min |
| C[C@H](C(=O)N[C@H](CO)c1ccc(F)c(Cl)c1)N1Cc2ccc(-c3nc(NC4CCOCC4)ncc3F)c(F)c2C1=O [Embodiment 48] | 0.0192 |  | < 0.001 | strong cell proliferation inhibitory activity | > 10 | > 10 | > 10 | > 10 | > 10 |  |
| [2H]C([2H])([2H])Oc1cc(F)cc([C@@H](CO)NC(=O)[C@@H](C)N2Cc3ccc(-c4nc(NC5CCOCC5)ncc4F)c(F)c3C2=O)c1 [Embodiment 49] | 0.0174 | extremely strong enzyme inhibitory activity | < 0.001 | strong cell proliferation inhibitory activity | > 10 | > 10 | > 10 | > 10 | > 10 |  |

From patent US20230312564A1, “AROMATIC RING-LACTAM COMPOUND, PREPARATION METHOD THEREFOR AND USE THEREOF” (SHANGHAI RINGENE BIOPHARMA CO., LTD., priority 2020, published 2023)
